Like-named read-outs stand apart in the source and are kept apart here.
Legend:
[1] = system: rat model of myotonia congenita; assay: In vivo antimyotonic activity in 9-AC-induced rat model of myotonia congenita, time of righting reflex (TRR)
Method: Myotonia was induced in rats by intraperitoneal injection of 9-AC, which is a known blocker of skeletal muscle ClC-1 chloride channels (Conte Camerino et al., Muscle Nerve. 1989; 12(11):898-904. Altamura et al., Br J Pharmacol. 2018; 175(10):1770-1780). Male Wistar rats (250-300 g) were used. Experiments were performed in accordance with the Guide for the Care and Use of Laboratory Animals and with Italian Health Department approval n. 194/2018-PR. Experimenters were blinded to the treatments. In this animal model, 9-AC mimics in vivo myotonia congenita, a human disease due to loss-of-function mutations in CLCN1 gene encoding ClC-1 channels. […] Nevertheless, the animals remained fully conscious and alert. Breathing was normal. When hearing an unexpected noise, the animals reacted by a jump on site but had great difficulties to move away due to muscle stiffness. Myotonia was evaluated by measuring the time of righting reflex (TRR, the time needed for the rat placed in supine position to turn back on its four paws). In rats, before 9-AC injections the TRR was less than 0.5 s. […] Then the TRR decreased gradually over time, being close to 1 s, 3 h after 9-AC. An anti-myotonic drug is expected to counteract the 9-AC-induced TRR prolongation. The TRR was evaluated about 10 minutes before 9-AC (Time 0) and 10, 37, 67, 127, and 187 min after 9-AC (30 mg/kg i.p.). The TRR measured at each time point was the mean of 7 measurements spaced by 1 min (to limit warm-up effect). Safinamide methanesulfonate (10 and 30 mg/kg as free base) or vehicle were administrated by oral gavage to the rats 17 min after 9-AC injection. 9-AC and safinamide methanesulfonate were dissolved in bicarbonate and 0.9% NaCl solution, respectively. To allow comparison between rats, the TRR measured at each time point was normalized as a function of TRR measured 10 min after 9AC injection in the same rat. Then average data were calculated for each dosage as the mean±S.E.M. Statistical analysis was performed using one-way analysis of variance (ANOVA) followed by ad-hoc Bonferroni's t test. […] In this in vivo model the dose-response curve of safinamide methanesulfonate at increasing doses (0.3, 1, 3, 10 and 30 mg/kg as free base) was also studied. To allow comparison between rats, the TRR measured at each time point was normalized as a function of TRR measured 10 min after 9AC injection in the same rat. Then average data were calculated for each drug/dosage as the mean±S.E.M. Statistical analysis will be performed using one-way analysis of variance (ANOVA) followed by ad-hoc Bonferroni's t test.

hNav1.4 point mutations = assay: Potency in cells transfected with hNav1.4 point mutations compared to wild type; assay type: cell-based, human
Method: The effect of safinamide was evaluated on some hNav1.4 point mutations located in the inactivation site. Human skeletal muscle subtype of voltage-gated sodium channels (hNav1.4), either wild-type or myotonic mutants, were transiently transfected in HEK293T cells with the calcium-phosphate co-precipitation method. Whole-cell sodium currents (INa) were recorded at room temperature (20-22° C.) using Axon conventional patch-clamp hardware (Molecular Devices, USA). Voltage clamp protocols and data acquisition were performed with pCLAMP software (Axon Instruments). Bath solution contained (mM) 150 NaCl, 4 KCl, 2 CaCl2, 1 MgCl2, 5 Na-HEPES, and 5 glucose (pH 7.4). The pipette solution contained (in mM) 120 CsF, 10 CsCl, 10 NaCl, 5 EGTA, and 5 Cs-HEPES (pH 7.2). Patch pipettes made with Corning 7052 glass (King glass, USA) had resistance ranging from 1 to 3 MΩ. […] The concentration-response curves of safinamide were produced by obtaining the peak current amplitude measured in the presence of drug (IDRUG), normalized to the peak current amplitude measured in the same cell before drug application (ICTRL), as a function of drug concentration [(DRUG)]. […] The IC50 values were determined at resting membrane potential (tonic block: -120 mV at 0.1 Hz) and after repetitive depolarizing pulses to -20 mV at 10 Hz (use and frequency-dependent block). […]

hNav1.4 I1310N = hNav1.4 I1310N (Homo sapiens, UniProt P35499, I1310N); assay: Whole-cell patch clamp sodium current inhibition in transfected HEK293T cells, I1310N mutant; assay type: cell-based
Method: p.I1310N: this mutation has been found in 5 related of a French kindred, and is associated to sodium channel myotonia (Farinato et al., 2019).
(§1) Human skeletal muscle subtype of voltage-gated sodium channels (hNav1.4), either wild-type or myotonic mutants, were transiently transfected in HEK293T cells with the calcium-phosphate co-precipitation method. Whole-cell sodium currents (INa) were recorded at room temperature (20-22° C.) using Axon conventional patch-clamp hardware (Molecular Devices, USA). Voltage clamp protocols and data acquisition were performed with pCLAMP software (Axon Instruments). Bath solution contained (mM) 150 NaCl, 4 KCl, 2 CaCl2, 1 MgCl2, 5 Na-HEPES, and 5 glucose (pH 7.4). […]
(§2) Inhibition of hNav1.4 channels by safinamide was evaluated by measuring the reduction of INa elicited from a holding potential (HP) of −120 to −30 mV at frequency stimulations of 0.1 and 10 Hz. The concentration-response curves of safinamide were produced by obtaining the peak current amplitude measured in the presence of drug (IDRUG), normalized to the peak current amplitude measured in the same cell before drug application (ICTRL), as a function of drug concentration [(DRUG)]. […] The IC50 values were determined at resting membrane potential (tonic block: −120 mV at 0.1 Hz) and after repetitive depolarizing pulses to −20 mV at 10 Hz (use and frequency-dependent block). […]

hNav1.4 F1298C = target: T1, hNav1.4 F1298C (Homo sapiens, UniProt P35499, F1298C); assay: Whole-cell patch clamp sodium current inhibition in transfected HEK293T cells, F1298C mutant; assay type: cell-based
T1 construct: expressed in transfected cells; host or cells: HEK293T
Source text: p.F1298C: this mutation was found in a person, presenting with stiffness in facial, upper and lower limb muscles, mainly after contraction (Farinato et al., 2019). Symptoms worsened with cold and myotonia was reported as painful. The patient noticed a mild improvement of myotonia with exercise.
Human skeletal muscle subtype of voltage-gated sodium channels (hNav1.4), either wild-type or myotonic mutants, were transiently transfected in HEK293T cells with the calcium-phosphate co-precipitation method. Whole-cell sodium currents (INa) were recorded at room temperature (20-22° C.) using Axon conventional patch-clamp hardware (Molecular Devices, USA). […]
as §2

hNav1.4 P1158L = target: T2, hNav1.4 P1158L (Homo sapiens, UniProt P35499, P1158L); assay: Whole-cell patch clamp sodium current inhibition in transfected HEK293T cells, P1158L mutant; assay type: cell-based
T2 construct: expressed in transfected cells; host or cells: HEK293T
Method: as §1, with “7.4). The pipette solution contained (in mM) 120 CsF, 10 CsCl, 10 NaCl, 5 EGTA, and 5 Cs-HEPES (pH 7.2).” for “7.4).”
as §2

[2] = system: sarcolemma excitability in single myofibers of isolated Extensor Digitorum Longus (EDL) muscles; assay: In vitro antimyotonic activity in rat EDL skeletal muscle fibers, 9-AC-induced myotonia-like condition, two-microelectrode current clamp; assay type: cell-based; details: for reduction of N spikes (maximum number of spikes): vs 9-AC alone
Method: The antimyotonic activity of safinamide was assessed by recording the sarcolemma excitability in single myofibers of isolated Extensor Digitorum Longus (EDL) muscles using two-microelectrode current-clamp technique. The in-vitro model of myotonia congenita was obtained by incubating rat EDL muscles with 9-anthracene carboxylic acid (9-AC) (Conte Camerino et al., Muscle Nerve. 1989; 12(11):898-904. Altamura et al., Br J Pharmacol. 2018; 175(10):1770-1780). The increase of sarcolemma excitability caused by 9-AC through the blockade of skeletal muscle ClC-1 chloride channels mimicked the abnormal action potential firing observed in patients affected by myotonia congenita.
EDL muscles were dissected out from male Wistar rats under deep anaesthesia (80 mg/kg ip ketamine and 10 mg/kg ip xylazine). Muscles were placed in a 25 ml muscle bath maintained at 30° C. and perfused with saline (gassed with 95% O2 and 5% CO2; pH=7.2-7.3). By means of standard two-intracellular-microelectrode technique, the resting membrane potential and excitability characteristics (number of spikes) of muscle fibres were measured in current clamp mode. The excitability characteristics of the sampled fibres were determined by recording the intracellular membrane potential response to a square-wave constant (100 ms) current pulse. In each fibre, the membrane potential was set by a steady holding current to −80 mV before passing the depolarizing pulses. By increasing the amplitude of the pulse we were able to elicit the first single action potential and by further increasing current intensity in the same fibre, the maximum number of elicitable spikes (N spikes) was measured (Pierno et al., Br J Pharmacol. 2006; 149(7):909-19).
Unwarranted muscle contractions were hampered with dantrolene sodium (2 mg/1). Cell excitability parameters (N spikes) was measured before (control) and after 50 μM 9-AC alone and concomitant application of safinamide at six different concentrations (0.1 to 30 μM). In these experimental conditions, safinamide methanesulfonate was used and dissolved as stock solution (10 mM) in distilled water, then it was diluted to the final concentrations in the muscle bath solution. One animal was used to test two concentrations of safinamide: one concentration in each EDL muscle.

hNav1.4 V1293I = target: T3, hNav1.4 V1293I (Homo sapiens, UniProt P35499, V1293I); assay: Whole-cell patch clamp sodium current inhibition in transfected HEK293T cells, V1293I mutant; assay type: cell-based
T3 construct: expressed in transfected cells; host or cells: HEK293T
Method: p.V1293I: the V1293I mutation is associated to various phenotypes, from sodium channel myotonia to paramyotonia congenita+hyperkalemic periodic paralysis (Koch et al., 1995).
Human skeletal muscle subtype of voltage-gated sodium channels (hNav1.4), either wild-type or myotonic mutants, were transiently transfected in HEK293T cells with the calcium-phosphate co-precipitation method. Whole-cell sodium currents (INa) were recorded at room temperature (20-22° C.) using Axon conventional patch-clamp hardware (Molecular Devices, USA). Voltage clamp protocols and data acquisition were performed with pCLAMP software (Axon Instruments). […]
as §2

Wild Type hNav1.4 = target: T4, Wild Type hNav1.4 (Homo sapiens, UniProt P35499); assay: Whole-cell patch clamp sodium current inhibition in transfected HEK293T cells, wild type; assay type: cell-based
T4 construct: expressed in transfected cells; host or cells: HEK293T
Method: as §1, with “7.4). The pipette solution contained (in mM) 120 CsF, 10 CsCl, 10 NaCl, 5 EGTA, and 5 Cs-HEPES (pH 7.2).” for “7.4).”
as §2

[3] = HP -120 mV, 0.1 Hz, read-out: IC50 ± SE Tonic block at 0.1 Hz
[4] = repetitive depolarizing pulses, 10 Hz, read-out: IC50 ± SE Use and frequency-dependent block at 10 Hz

T1 sequence (P35499 whole entry F1298C): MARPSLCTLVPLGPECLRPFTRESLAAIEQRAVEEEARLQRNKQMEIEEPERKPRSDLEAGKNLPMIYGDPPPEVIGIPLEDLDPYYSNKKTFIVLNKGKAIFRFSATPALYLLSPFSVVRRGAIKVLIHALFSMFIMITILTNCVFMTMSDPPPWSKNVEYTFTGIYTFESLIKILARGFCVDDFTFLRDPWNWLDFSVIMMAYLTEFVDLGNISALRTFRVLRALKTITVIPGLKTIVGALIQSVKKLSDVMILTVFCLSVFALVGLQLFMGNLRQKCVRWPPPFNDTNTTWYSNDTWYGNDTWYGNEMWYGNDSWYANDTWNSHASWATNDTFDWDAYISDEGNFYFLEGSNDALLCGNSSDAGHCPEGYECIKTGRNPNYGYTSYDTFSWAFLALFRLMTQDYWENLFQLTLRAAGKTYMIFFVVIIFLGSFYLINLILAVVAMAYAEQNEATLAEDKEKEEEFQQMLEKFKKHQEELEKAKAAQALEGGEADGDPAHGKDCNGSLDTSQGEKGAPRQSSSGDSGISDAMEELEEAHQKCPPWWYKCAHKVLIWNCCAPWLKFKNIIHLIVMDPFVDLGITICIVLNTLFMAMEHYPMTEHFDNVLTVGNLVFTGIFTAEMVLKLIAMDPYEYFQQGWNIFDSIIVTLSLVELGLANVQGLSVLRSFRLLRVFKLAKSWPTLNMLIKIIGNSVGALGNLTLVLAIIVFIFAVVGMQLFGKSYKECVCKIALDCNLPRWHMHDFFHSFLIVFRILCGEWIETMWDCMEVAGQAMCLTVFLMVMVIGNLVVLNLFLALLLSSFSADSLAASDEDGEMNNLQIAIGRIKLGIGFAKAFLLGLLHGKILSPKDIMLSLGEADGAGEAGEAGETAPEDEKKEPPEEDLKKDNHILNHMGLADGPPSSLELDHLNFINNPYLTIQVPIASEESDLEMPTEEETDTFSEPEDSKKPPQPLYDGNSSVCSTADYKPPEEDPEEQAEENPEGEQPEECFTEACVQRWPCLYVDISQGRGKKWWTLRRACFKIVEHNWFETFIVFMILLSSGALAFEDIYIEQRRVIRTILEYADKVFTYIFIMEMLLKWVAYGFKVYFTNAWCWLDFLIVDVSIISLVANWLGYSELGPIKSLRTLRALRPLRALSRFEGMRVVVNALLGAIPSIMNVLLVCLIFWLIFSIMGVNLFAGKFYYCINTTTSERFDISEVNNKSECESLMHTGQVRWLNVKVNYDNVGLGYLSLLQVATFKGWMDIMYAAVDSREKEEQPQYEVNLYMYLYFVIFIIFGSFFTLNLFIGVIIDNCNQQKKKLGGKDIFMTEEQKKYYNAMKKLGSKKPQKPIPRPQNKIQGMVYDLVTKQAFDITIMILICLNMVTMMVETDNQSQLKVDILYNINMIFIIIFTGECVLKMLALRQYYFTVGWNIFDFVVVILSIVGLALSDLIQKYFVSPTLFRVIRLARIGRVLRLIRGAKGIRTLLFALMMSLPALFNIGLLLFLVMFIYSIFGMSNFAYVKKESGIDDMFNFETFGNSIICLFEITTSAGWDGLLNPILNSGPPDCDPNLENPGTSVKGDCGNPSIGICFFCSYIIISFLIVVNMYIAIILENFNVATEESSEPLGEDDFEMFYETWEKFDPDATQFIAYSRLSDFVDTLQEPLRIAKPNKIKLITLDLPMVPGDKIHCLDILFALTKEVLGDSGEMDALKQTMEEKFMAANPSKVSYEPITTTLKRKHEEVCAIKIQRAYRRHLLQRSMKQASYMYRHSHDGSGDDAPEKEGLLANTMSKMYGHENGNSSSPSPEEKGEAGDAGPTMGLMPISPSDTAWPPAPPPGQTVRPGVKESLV
T2 sequence (P35499 whole entry P1158L): as the sequence (P35499 whole entry F1298C) above, with P1158L, C1298F counted along it
T4 sequence (P35499 whole entry): as the sequence (P35499 whole entry F1298C) above, with C1298F counted along it
Sequence of hNav1.4 I1310N (P35499 whole entry I1310N): as the sequence (P35499 whole entry F1298C) above, with C1298F, I1310N counted along it
T3 sequence (P35499 whole entry V1293I): as the sequence (P35499 whole entry F1298C) above, with V1293I, C1298F counted along it

Structure (SMILES): Cc1cccc(C)c1OCC(C)N (centres unmarked) [mexiletine]
- potency relative to safinamide in the same test (fold less potent) ([1]; TRR, 9-AC rat model): about 6 fold
- potency in hNav1.4 point mutations transfected cells (hNav1.4 point mutations): significantly decreases

Structure (SMILES): C[C@H](NCc1ccc(OCc2cccc(F)c2)cc1)C(N)=O [safinamide, (2S)-2-[[4-[(3-fluorophenyl)methoxy]phenyl]methylamino]propanamide]
- IC50 (hNav1.4 I1310N; [3]): 170 ± 26 µM
- IC50 (hNav1.4 I1310N; [4]): 46 ± 7 µM
- IC50 (hNav1.4 F1298C; [3]): 173 ± 12 µM
- IC50 (hNav1.4 F1298C; [4]): 83 ± 2 µM
- reduction of TRR ([1]; 37 min after 9-AC, 3, 10 and 30 mg/kg oral): significant
- maximal effect on TRR prolongation ([1]; 67 min, dose of 10-30 mg/kg oral): 66%
- TRR inhibition ([1]; 67 min after 9-AC (peak effect), also with 1 mg/kg oral): significant
- TRR inhibition ([1]; 127 min after 9-AC, only 10 and 30 mg/kg oral): significant inhibition
- ED50 ([1]; Rattus norvegicus, 67 min, dose-response curve at 67 min, oral, read-out: ED50 (effective dose in inhibiting by 50% TRR prolongation)): 1.2 mg/kg
- effect on 9-AC-induced TRR prolongation ([1]; at peak effect (37 and 67 min after 9-AC), oral gavage): dose-dependently and significantly counteracted
- duration of effect on TRR prolongation ([1]; oral gavage, 17 min after 9-AC): ≤ 120 min
- IC50 (hNav1.4 P1158L; [3]): 148 ± 13 µM
- IC50 (hNav1.4 P1158L; [4]): 34 ± 3 µM
- IC50 ([2]; Rattus norvegicus, fit of concentration-response curve, ±SE of the fit, 50 μM 9-AC, read-out: IC50 (concentration able to reduce by 50% the 9-AC effect)): 13.4 ± 2.4 µM
- reduction of N spikes (maximum number of spikes) ([2]; safinamide 1 μM with 50 μM 9-AC): 22±6%
- reduction of N spikes (maximum number of spikes) ([2]; safinamide 5 μM with 50 μM 9-AC): 35±5%
- reduction of N spikes (maximum number of spikes) ([2]; safinamide 10 μM with 50 μM 9-AC): 42±5%
- reduction of N spikes (maximum number of spikes) ([2]; safinamide 30 μM with 50 μM 9-AC): 60±6%
- reversibility of antimyotonic effect upon wash-out ([2]; wash-out, 9-AC 50 μM): reversible
- IC50 (hNav1.4 V1293I; [3]): 171 ± 19 µM
- IC50 (hNav1.4 V1293I; [4]): 47 ± 5 µM
- IC50 (Wild Type hNav1.4; [3]): 160 ± 18 µM
- IC50 (Wild Type hNav1.4; [4]): 33 ± 4 µM

Structure (SMILES): O=C(O)c1c2ccccc2cc2ccccc12 [9-AC, 9-anthracene carboxylic acid]
- time of righting reflex (TRR) ([1]; 10 min after 9-AC injection): about 2 s
- time of righting reflex (TRR) ([1]; 30 min after 9-AC injection): about 4 s
- time of righting reflex (TRR) ([1]; 3 h after 9-AC injection): ~1 s
- increase of N spikes ([2]; 50 μM 9-AC alone vs control): 60%

From patent publication US11707441B2, “Safinamide for treating myotonia” (Zambon S.P.A., priority 2018, dated 2023)
